# Key:
# RARα [1] = molecular target: T1, RARα (Homo sapiens, UniProt P10276); experiment: Holoreceptor transactivation assay, RARα; format: cell-based; details: CV-1; CV1 cells; relative to all trans retinoic acid; read-out: Transactivation Assay Efficacy (% of RA activity), RARα
# T1 construct: expressed in transfected cells; host or cells: CV1
# T1 sequence (P10276 1-462): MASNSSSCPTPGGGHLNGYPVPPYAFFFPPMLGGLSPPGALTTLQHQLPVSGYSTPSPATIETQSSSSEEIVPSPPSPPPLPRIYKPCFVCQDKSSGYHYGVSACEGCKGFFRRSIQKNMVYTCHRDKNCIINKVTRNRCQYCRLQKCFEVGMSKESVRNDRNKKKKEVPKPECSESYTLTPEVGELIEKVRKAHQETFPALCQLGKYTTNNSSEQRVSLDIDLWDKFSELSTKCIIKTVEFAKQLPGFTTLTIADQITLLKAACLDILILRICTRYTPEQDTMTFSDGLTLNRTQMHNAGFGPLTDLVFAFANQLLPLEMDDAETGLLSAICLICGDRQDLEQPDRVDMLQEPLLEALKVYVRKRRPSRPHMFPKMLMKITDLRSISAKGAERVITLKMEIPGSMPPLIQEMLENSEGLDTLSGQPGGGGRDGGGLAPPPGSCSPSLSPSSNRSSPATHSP
# Source text: (§1) A holoreceptor transactivation assay and a ligand binding assay which measure the ability of the compounds of the invention to bind to the several retinoid receptor subtypes, respectively, are described in published PCT Application No. WO W093/11755 (particularly on pages 30-33 and 37-41) published on Jun. 24, 1993, the specification of which is also incorporated herein by reference. A description of the holoreceptor transactivation assay is also provided below.
# (§2) CV1 cells (5,000 cells/well) were transfected with an RAR reporter plasmid MTV-TREp-LUC (50 ng) along with one of the […] expression vectors (10 ng) in an automated 96-well format by the calcium phosphate procedure of Heyman et al. Cell 68, 397-406. (8). For RXRα and RXR.GAMMA. transactivation assays, an RXR-responsive reporter plasmid CRBPII-tk-LUC (50 ng) along with the appropriate RXRexpression vectors (10 ng) was used substantially as described by Heyman et al. above, and Allegretto et al. J. Biol. Chem. 268, 26625-26633. For RXRβ transactivation assays, an RXR-responsive reporter plasmid CPRE-tk-LUC ([…]) along with RXRβ expression vector ([…]) was used as described in above. These reporters contain DRI elements from human CRBPII and certain DRI elements from promoter, respectively. (see Mangelsdorf et al. The Retinoids: Biology, Chemistry and Medicine, pp 319-349, Raven Press Ltd., New York and Heyman et al., cited above) (1, 8). A β-galactosidase (50 ng) expression vector was used as an internal control in the transfections to normalize for variations in transfection efficiency. The cells were transfected in triplicate for 6 hours, followed by incubation with retinoids for 36 hours, and the extracts were assayed for luciferase and β-galactosidase activities. The detailed experimental procedure for holoreceptor transactivations has been described in Heyman et al. above, and Allegretto et al. cited above. The results obtained in this assay in connection with examplary compounds in accordance with the present invention are expressed in EC50 numbers, as they are also in the chimeric receptor transactivation assay. The Heyman et al. Cell 68, 397-406, Allegretto et al. J. Biol. Chem. 268, 26625-26633, and Mangelsdorf et al. The Retinoids: Biology, Chemistry and Medicine, pp 319-349, Raven Press Ltd., New York, are expressly incorporated herein by reference. The results of ligand binding assay are expressed in Kd numbers. (See Cheng et al. Biochemical Pharmacology Vol. 22 pp 3099-3108, expressly incorporated herein by reference.)
# RARα [2] = molecular target: T1, RARα; experiment: Ligand binding assay, RARα
# Source text: as §1, §2
# RARγ = molecular target: T2, RARγ (Homo sapiens, UniProt P13631); experiment: Ligand binding assay, RARγ
# T2 construct: expressed in transfected cells; host or cells: CV1
# T2 sequence (P13631 1-454): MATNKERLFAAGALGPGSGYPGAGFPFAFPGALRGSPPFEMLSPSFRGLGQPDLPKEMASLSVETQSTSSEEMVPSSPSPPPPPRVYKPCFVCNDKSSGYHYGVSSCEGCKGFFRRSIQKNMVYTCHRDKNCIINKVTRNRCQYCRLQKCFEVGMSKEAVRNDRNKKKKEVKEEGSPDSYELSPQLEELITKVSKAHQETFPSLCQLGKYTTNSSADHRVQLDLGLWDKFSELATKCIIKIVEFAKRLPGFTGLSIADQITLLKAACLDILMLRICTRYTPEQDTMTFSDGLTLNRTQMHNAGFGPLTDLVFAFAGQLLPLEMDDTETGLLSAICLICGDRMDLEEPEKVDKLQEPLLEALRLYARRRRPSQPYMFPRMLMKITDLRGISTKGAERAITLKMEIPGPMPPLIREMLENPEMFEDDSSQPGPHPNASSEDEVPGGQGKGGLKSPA
# Source text: as §1, §2
# RXRβ = molecular target: T3, RXRβ (Mus musculus, UniProt P28704); experiment: Ligand binding assay, RXRβ
# T3 construct: expressed in transfected cells; host or cells: CV1
# T3 sequence (P28704 1-520): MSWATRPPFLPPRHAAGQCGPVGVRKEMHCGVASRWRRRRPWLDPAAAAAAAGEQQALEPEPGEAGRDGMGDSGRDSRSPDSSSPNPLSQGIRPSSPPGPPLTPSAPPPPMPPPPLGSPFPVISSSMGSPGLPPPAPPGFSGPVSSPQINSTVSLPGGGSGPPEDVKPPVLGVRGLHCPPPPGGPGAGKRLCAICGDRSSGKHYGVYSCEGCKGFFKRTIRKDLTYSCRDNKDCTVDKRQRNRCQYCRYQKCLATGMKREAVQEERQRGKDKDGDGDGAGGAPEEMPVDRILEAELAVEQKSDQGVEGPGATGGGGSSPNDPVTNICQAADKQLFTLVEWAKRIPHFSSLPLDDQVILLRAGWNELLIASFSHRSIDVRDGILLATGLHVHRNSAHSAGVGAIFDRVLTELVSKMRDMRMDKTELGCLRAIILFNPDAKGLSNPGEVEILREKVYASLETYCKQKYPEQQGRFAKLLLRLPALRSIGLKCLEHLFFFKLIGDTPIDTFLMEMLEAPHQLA
# Source text: as §1, §2
SMILES,Emax (RARα [1]),Kd (RARα [2]),Kd (RARγ),Kd (RXRβ)
CC1(C)CCC(C)(C)c2cc(Sc3ccc(C(=O)O)cc3)ccc21 [Compound 2],3%,> 1000 nM,> 1000 nM,> 1000 nM
"CC1(C)CCC(C)(C)c2cc(S(=O)(=O)c3ccc(C(=O)O)cc3)ccc21 [Compound 5, 4-(5,6,7,8-tetrahydro-5,5,8,8-tetramethyl-2-naphthylsulfonyl)benzoic acid]",10%,> 1000 nM,> 1000 nM,> 1000 nM
"Cc1cc2c(cc1Sc1ccc(C(=O)O)cc1)C(C)(C)CCC2(C)C [Compound 7, 4-(5,6,7,8-tetrahydro-3,5,5,8,8-pentamethyl-2-Daphthylthio)benzoic acid]",3%,> 1000 nM,> 1000 nM,302 nM
"Cc1cc2c(cc1[S+]([O-])c1ccc(C(=O)O)cc1)C(C)(C)CCC2(C)C (stereo not drawn) [Compound 9, 4-(5,6,7,8-tetrahydro-3,5,5,8,8-pentamethyl-2-naphthylsulfoxy)benzoic acid]",5%,> 1000 nM,> 1000 nM,> 1000 nM
"Cc1cc2c(cc1S(=O)(=O)c1ccc(C(=O)O)cc1)C(C)(C)CCC2(C)C [Compound 11, 4-(5,6,7,8-tetrahydro-3,5,5,8,8-pentamethyl-2-naphthylsulfonyl)benzoic acid]",2%,> 1000 nM,> 1000 nM,
Cc1cc2c(cc1Sc1ccc(C(=O)O)cn1)C(C)(C)CCC2(C)C [Compound 13],1%,> 10000 nM,> 10000 nM,57 nM
"Cc1cc2c(cc1Sc1ncc(C(=O)O)s1)C(C)(C)CCC2(C)C [Compound 15, 2-(5,6,7,8-Tetrahydro-3,5,5,8,8-pentamethyl-2-naphthylthio)-5-thiazolecarboxylic acid]",1%,> 1000 nM,> 1000 nM,> 1000 nM
